pIC50: −log10 of the molar value.
The compounds below were run against Arachidonate 5-lipoxygenase (Cavia porcellus) (assay: Evaluated for inhibition of the formation and release of 5-lipoxygenase in guinea pig peritoneal PMNL).

SMILES	pIC50
CCCCC1Oc2c(C)c(C)c(O)c(C)c2S1 (stereo unspecified)	7.23
Cc1c(C)c2c(c(C)c1O)SCO2	6.54
CCCCCCCC1Oc2c(C)c(C)c(O)c(C)c2S1 (stereo unspecified)	6.66
Cc1c(C)c2c(c(C)c1O)SC(CCC(N)=O)O2 (stereo unspecified)	6.28
Cc1c(C)c2c(c(C)c1O)SC(c1ccccc1)O2 (stereo unspecified)	7.15
CCCC1Oc2c(C)c(C)c(O)c(C)c2S1 (stereo unspecified)	7.60
